Data taken from US6716859B2, “Substituted N′-(Arylcarbonyl)-benzhydrazides, N′(Arylcarbonyl)-benzylidene-hydrazides and analogs as activators of caspases and inducers of apoptosis and the use thereof” (Cytovia, Inc., priority 2001, dated 2004).
pEC50, pIC50: −log10 of the molar value.

Assays:
[1] = test system: breast and non-breast cancer cells; assay: Cell proliferation assay, breast versus non-breast cancer cell lines; format: cell-based; conditions: conclusion from Tables III and IV
Protocol: (§1) T-47D and ZR-75-1 cells were grown and harvested as in Example 43. An aliquot of 90 μl of cells (2.2×10^4 cells/ml) was added to a well of a 96-well microtiter plate containing 10 μl of a 10% DMSO in RPMI-1640 media solution containing 1 nM to 100 μM of N′-(2-phenoxypyridine-3-carbonyl)-3-(trifluoromethyl)benzhydrazide (0.1 nM to 10 μM final). An aliquot of 90 μl of cells was added to a well of a 96-well microtiter plate containing 10 μl of a 10% DMSO in RPMI-1640 media solution without compound as the control sample for maximal cell proliferation (AMax). The samples were mixed by agitation and then incubated at 37° C. for 48 h in a 5% CO2-95% humidity incubator. After incubation, the samples were removed from the incubator and 20 μl of CellTiter 96 AQUEOUS One Solution Cell Proliferation™ reagent (Promega) was added. The samples were mixed by agitation and incubated at 37° C. for 2-4 h in a 5% CO2-95% humidity incubator. Using an absorbance plate reader (Model 1420 Wallac Instruments), an initial reading (T=0) was made approximately 1-2 min after addition of the solution, employing absorbance at 490 nm. This determines the possible background absorbance of the test compounds. No absorbance for N′-(2-phenoxypyridine-3-carbonyl)-3-(trifluoromethyl)benzhydrazide was found at 490 nm. After the 2-4 h incubation, the samples were read for absorbance as above (ATest).
Baseline for GI50 (dose for 50% inhibition of cell proliferation) of initial cell numbers were determined by adding an aliquot of 90 μl of cells or 90 μl of media, respectively, to wells of a 96-well microtiter plate containing 10 μl of a 10% DMSO in RPMI-1640 media solution. The samples were mixed by agitation and then incubated at 37° C. for 0.5 h in a 5% CO2-95% humidity incubator. After incubation, the samples were removed from the incubator and 20 μl of CellTiter 96 AQUEOUS One Solution Cell Proliferation™ reagent (Promega) was added. The samples were mixed by agitation and incubated at 37° C. for 2-4 h in a 5% CO2-95% humidity incubator. […]

T-47D [2] = assay: Caspase cascade activation assay (fluorogenic DEVD substrate); format: cell-based, Human; conditions: 48 h; for Caspase activity Ratio: ratio of net RFU of test compound to control; for pEC50: Homo sapiens, T47D, read-out: Caspase potency EC50
Protocol: (§2) Human breast cancer cell lines T-47D and ZR-75-1 were grown according to media component mixtures designated by American Type Culture Collection+10% FCS (Invitrogen Corporation), in a 5% CO2-95% humidity incubator at 37° C. T-47D and ZR-75-1 cells were maintained at a cell density between 50 and 80% confluency at a cell density of 0.1 to 0.6×10^6 cells/ml. Cells were harvested at 600×g and resuspended at 0.65×10^6 cells/ml into appropriate media+10% FCS. An aliquot of […] of cells was added to a well of a 96-well microtiter plate containing 2.5 μl of a 10% DMSO in RPMI-1640 media solution containing 0.16 to 100 μM of N′-(2-phenoxypyridine-3-carbonyl)-3-(trifluoromethyl)benzhydrazide (Example 1) or other test compound (0.016 to 10 μM final). An aliquot of 22.5 μl of cells was added to a well of a 384-well microtiter plate containing 2.5 μl of a 10% DMSO in RPMI-1640 media solution without test compound as the control sample. The samples were mixed by agitation and then incubated at 37° C. for 48 h in a 5% CO2-95% humidity incubator. After incubation, the samples were removed from the incubator and 25 μl of a solution containing 14 μM of N-(Ac-DEVD)-N′-ethoxycarbonyl-R110 (SEQ ID No:1) fluorogenic substrate (Cytovia, Inc.; WO99/18856), 20% sucrose (Sigma), 20 mM DTT (Sigma), 200 mM NaCl (Sigma), 40 mM Na PIPES buffer pH 7.2 (Sigma), and 500 μg/ml lysolecithin (Calbiochem) was added. The samples were mixed by agitation and incubated at room temperature. Using a fluorescent plate reader (Model SpectraMax Gemini, Molecular Devices), an initial reading (T=0) was made approximately 1-2 min after addition of the substrate solution, employing excitation at 485 nm and emission at 530 nm, to determine the background fluorescence of the control sample. After the 3 h incubation, the samples were read for fluorescence as above (T=3 h).
(§3) The Relative Fluorescence Unit values (RFU) were used to calculate the sample readings as follows:
(§4) RFU(T=3 h)−Control RFU(T=0)=Net RFU(T=3 h)
(§5) The activity of caspase cascade activation was determined by the ratio of the net RFU value for N′-(2-phenoxypyridine-3-carbonyl)-3-(trifluoromethyl)benzhydrazide (Example 1) or other test compound to that of control samples. The EC50 (nM) was determined by a sigmoidal dose-response calculation (Prism 2.0, GraphPad Software Inc.).

ZR-75-1 [3] = assay: as above; format: cell-based, Human; conditions: 48 h; for Caspase activity Ratio: ratio of net RFU of test compound to control
Protocol: as §2, §3, §4, §5

T-47D [4] = assay: Cell proliferation assay (GI50); format: cell-based, Human; conditions: 48 h
Protocol: as §1
(§6) Baseline for GI50 (dose for 50% inhibition of cell proliferation) of initial cell numbers were determined by adding an aliquot of 90 μl of cells or 90 μl of media, respectively, to wells of a 96-well microtiter plate containing 10 μl of a 10% DMSO in RPMI-1640 media solution. The samples were mixed by agitation and then incubated at 37° C. for 0.5 h in a 5% CO2-95% humidity incubator. After incubation, the samples were removed from the incubator and 20 μl of CellTiter 96 AQUEOUS One Solution Cell Proliferation™ reagent (Promega) was added. The samples were mixed by agitation and incubated at 37° C. for 2-4 h in a 5% CO2-95% humidity incubator. Absorbance was read as above, (AStart) defining absorbance for initial cell number used as baseline in GI50 determinations.
(§7) GI50 (dose for 50% inhibition of cell proliferation) is the concentration where [(ATest−AStart)/(AMax−AStart)]=0.5
(§8) T-47D, ZR-75-l, MX-1, SK-Br-3, MCF-7, Panc-1, K562 and PC-3 cells were grown according to the conditions recommended by American Type Culture Collection. SW620 and NCI-H23 were grown according to the conditions provided by National Cancer Institute. The cell proliferation assay and the calculations of GI50 were performed as in Example 21 (Tables III and IV).

MCF-7 = assay: Cell proliferation assay (GI50); format: cell-based; conditions: Homo sapiens, MCF7
Protocol: as §1, §6, §7, §8

MX-1 = assay: Cell proliferation assay (GI50); format: cell-based; conditions: Homo sapiens, MX1
Protocol: as §1, §6, §7, §8

SW-620 = assay: Cell proliferation assay (GI50); format: cell-based; conditions: Homo sapiens
Protocol: as §1, §6, §7, §8

NCI-H23 = assay: Cell proliferation assay (GI50); format: cell-based; conditions: Homo sapiens
Protocol: as §1, §6, §7, §8

SK-Br-3 = assay: Cell proliferation assay (GI50); format: cell-based; conditions: Homo sapiens
Protocol: as §1, §6, §7, §8

K562 = assay: Cell proliferation assay (GI50); format: cell-based; conditions: Homo sapiens
Protocol: as §1, §6, §7, §8

ZR-75-1 [5] = assay: Cell proliferation assay (GI50); format: cell-based; conditions: Homo sapiens, 48 h
Protocol: as §1, §6, §7, §8

T-47D cells = assay: Cell cycle arrest by propidium iodide flow cytometry; format: cell-based, Human; conditions: 1 μM, 24 h
Protocol: T-47D, a breast cancer cell line, was maintained and harvested as described in Example 43. 5×10^5 Cells were treated with 1 μM of N′-(2-phenoxypyridine-3-carbonyl)-3-(trifluoromethyl)benzhydrazide for 24 h at 37° C. As a control, cells were also incubated with equivalent amount of solvent (DMSO). Cells were harvested at 1,200 rpm and then transferred to 12×75 mm polystyrene tubes. Cells were then resuspended in 500 μl of 1% Na Citrate, 0.1% Triton X-100, and 50 μg/ml of propidium iodide and incubated at room temperature for 30 min followed by flow cytometer analysis. All flow cytometry analyses were performed on FACScalibur (Becton Dickinson) using Cell Quest analysis software. The x-axis plotted the amount of fluorescence and the y-axis is plotted the number of cells with the indicated fluorescence. The T-47D control cell population profile is seen in FIG. 1A and the increase in G2/M (M4) DNA content cells that were treated with N′-(2-phenoxypyridine-3-carbonyl)-3-(trifluoromethyl)benzhydrazide is seen in FIG. 1B.

MX-1 cells = assay: Clonogenic survival assay; format: cell-based; conditions: Homo sapiens, MX1, 48 h treatment, read-out: IC50 of inhibition of clonogenic survival
Protocol: (§9) T47D and MX-1 cells were grown according to the conditions recommended by American Type Culture Collection. In a well of a 96 well plate, 30,000 cells were seeded and treated with compound at the indicated concentrations for 48 hr in a 5% CO2-95% humidity incubator at 37° C. Control wells were treated with the same amount of solvent (DMSO) as the compound samples. After the indicated treatment time, the supernatant was removed to a sterile culture tube and the wells washed with phosphate buffered saline, and the adherent cells trypsinized for 5 min. The trypsinzed cells were added to the culture supernatant, cells were collected (1,200 rpm, 10 min), washed with phosphate buffered saline, and resupended in fresh media. The cells were counted for trypan blue negative cells, and the cells diluted with fresh media to 1,000 cells/ml. To a well of a 24-well plate, 0.1 ml of the cell suspension was added along with 1 ml of fresh media (cell suspensions were passed through a 22 G needle several times just before plating to form single cell suspensions). Plates are incubated in a 5% CO2-95% humidity incubator at 37° C. for 7-10 days. Colonies are counted when the sizes reached greater than 50 cells per colony. […] Colonies are rinsed with water and the colonies counted and the fraction surviving expressed as the percentage of the number of control colonies.

T47D cells = assay: Clonogenic survival assay; format: cell-based; conditions: Homo sapiens, 48 h treatment, read-out: IC50 of inhibition of clonogenic survival
Protocol: as §9

PC-3 = assay: Cell proliferation assay (GI50); format: cell-based; conditions: Homo sapiens
Protocol: as §1, §6, §7, §8

Panc-1 = assay: Cell proliferation assay (GI50); format: cell-based; conditions: Homo sapiens
Protocol: as §1, §6, §7, §8

| Compound | Selectivity of growth inhibition for breast cancer cells [1] | Caspase activity Ratio (T-47D [2]) | pEC50 (T-47D [2]) | Caspase activity Ratio (ZR-75-1 [3]) | pEC50 (ZR-75-1 [3]; Homo sapiens, read-out: Caspase potency EC50) | GI50 (T-47D [4]) | GI50 (T-47D [4]; Homo sapiens, T47D) | GI50 (MCF-7) | GI50 (MX-1) | GI50 (SW-620) | GI50 (NCI-H23) | GI50 (SK-Br-3) | GI50 (K562) | GI50 (ZR-75-1 [5]) | G2/M (M4) DNA content cells (T-47D cells) | pIC50 (MX-1 cells) | pIC50 (T47D cells) | Caspase potency EC50 (ZR-75-1 [3]) | GI50 (PC-3) | GI50 (Panc-1) |
| --- | --- | --- | --- | --- | --- | --- | --- | --- | --- | --- | --- | --- | --- | --- | --- | --- | --- | --- | --- | --- |
| O=C(NNC(=O)c1cccnc1Oc1ccccc1)c1ccccc1O [Example 8, N′-(2-Phenoxypyridine-3-carbonyl)-2-hydroxybenzhydrazide] | inhibiting the growth of both breast and non-breast cancer cells | 7.3 | 6.13 | 5.6 | 6.14 | 600 nM | 1000 nM | 800 nM | 1000 nM | 1000 nM | 1000 nM | 300 nM | 450 nM | 300 nM |  |  |  |  |  |  |
| O=C(NNC(=O)c1cccnc1Oc1ccccc1)c1cccc(C(F)(F)F)c1 [Example 1, N′-(2-Phenoxypyridine-3-carbonyl)-3-(trifluoromethyl)benzhydrazide] | selectively inhibits the growth of breast cancer cells | 11.6 | 6.33 | 1.8 |  |  | 200 nM | 400 nM | 400 nM | > 10000 nM | > 10000 nM | 40 nM | > 10000 nM | 4500 nM | increase | ~6.22 | ~5.98 | INACTIVE | > 10000 nM | > 10000 nM |
| O=C(NN=Cc1cccc(C(F)(F)F)c1)c1cccnc1Oc1ccccc1 [Example 15, 2-Phenoxypyridine-3-carboxylic acid (3-trifluoromethylbenzylidene)-hydrazide] | selectively inhibits the growth of breast cancer cells |  |  |  |  | 80 nM | 60 nM | 250 nM | 400 nM | > 10000 nM | > 10000 nM | 20 nM |  | 2000 nM |  |  |  |  |  |  |
